The source of these data is patent US4868208A, “Antifungal agent and method” (Merck & Co., Inc., priority 1988, dated 1989).

The assay relates to Cryptococcus neoformans. As to the kind of experiment: Agar dilution assay (MIC) against an expanded panel of 84 Cryptococcus neoformans strains. The format is cell-based. Conditions: 84 Cryptococcus neoformans isolates, yeast nitrogen base dextrose agar, 0.008 to 16.0 μg/ml. Here is the method: Such activity may be illustrated with test results against Cryptococcus neoformans employing yeast nitrogen base dextrose agar medium. In carrying out the assay, Compound Ia' was solubilized in 10 percent dimethyl sulfoxide (DMSO) supplemented with one drop of Tween 20. Twofold dilutions were made with sterile distilled water/10 percent DMSO to obtain final drug concentrations in the agar dilution assay plates ranging from 0.008 to 16.0 μg/ml against an expanded panel of 84 Cryptococcus neoformans strains.
The minimum inhibitory concentration against the expanded panel of 84 Cryptococcus neoformans isolates may be summarized as follows: […]

Turning to `COC(=O)C(C)CNC(=O)C(Cc1ccc(OC)c(Cl)c1)NC(=O)C=CCC(OC(=O)C(O)CC(C)C)C(C)C1OC1c1ccccc1` (stereo not drawn) [Compound Ia', 5-[[2-[[2-(methoxycarbonyl)propyl]amino]-1-[(3-chloro-4-methoxyphenyl)methyl]-2-oxoethyl]amino]-5-oxo-1-[1-(3-phenyloxiranyl)ethyl]-3-pentenyl 2-hydroxy-4-methylpentanoate], the “MIC50 (concentration at which 50% of the strains were inhibited)” value turned out to be 8.0 µg/mL and the “MIC90 (concentration at which 90% of the strains were inhibited)” value stood at 8.0 µg/mL. Moreover, the “G-MIC (geometric means of MIC)” value (10 percent DMSO/Tween 20) is greater than 6.11 µg/mL.
